From patent US11492335B2, “Aryl or heteroaryl triazolone derivatives or salts thereof, or pharmaceutical compositions comprising the same” (YUHAN CORPORATION, priority 2018, dated 2022)
Where a name gives a salt, the structure may show the parent alone.

Legend:
Format in all cases: biochemical
[1] = target: T1, recombinant human MAO-B (monoamine oxidase-B) (Homo sapiens, UniProt P27338); test: Activity on recombinant human MAO-B, Amplex Red method, 1 mM benzylamine substrate; conditions: 1 mM benzylamine, read-out: Inhibitory Activity (IC50, nM) MAO-B
T1 construct: purchased Sigma-Aldrich
T1 sequence (P27338 1-520): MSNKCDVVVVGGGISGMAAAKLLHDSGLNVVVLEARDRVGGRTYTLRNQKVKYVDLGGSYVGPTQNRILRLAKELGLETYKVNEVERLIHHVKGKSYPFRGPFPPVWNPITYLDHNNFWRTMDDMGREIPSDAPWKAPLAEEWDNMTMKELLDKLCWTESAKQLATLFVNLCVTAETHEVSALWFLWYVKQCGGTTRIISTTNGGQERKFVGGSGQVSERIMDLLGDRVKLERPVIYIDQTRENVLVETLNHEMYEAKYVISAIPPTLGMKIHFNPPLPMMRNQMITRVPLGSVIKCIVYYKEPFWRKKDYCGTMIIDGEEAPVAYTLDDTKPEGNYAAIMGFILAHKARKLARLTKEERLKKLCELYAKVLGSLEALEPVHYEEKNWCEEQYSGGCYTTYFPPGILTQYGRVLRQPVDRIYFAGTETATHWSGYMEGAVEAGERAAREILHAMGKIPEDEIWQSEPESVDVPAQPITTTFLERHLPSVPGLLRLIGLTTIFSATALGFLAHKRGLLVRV
Method in brief: (§1)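 Enzyme preincubated with compound 30 min at 37 °C in 50 mM sodium phosphate pH 7.4, final DMSO below 1%. Substrate was 0.5 mM tyramine for MAO-A and 1 mM benzylamine for MAO-B, with 200 uM Amplex Red and 1 U/mL HRP. H2O2-coupled resorufin fluorescence (ex 544/em 590) followed over 1–2 h; 8-point 4-parameter IC50.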

[2] = target: T2, recombinant human MAO-A (monoamine oxidase-A) (Homo sapiens, UniProt P21397); test: Activity on recombinant human MAO-A, Amplex Red method, 0.5 mM tyramine substrate; conditions: 0.5 mM tyramine, read-out: Inhibitory Activity (IC50, nM) MAO-A
T2 construct: purchased Sigma-Aldrich
T2 sequence (P21397 1-527): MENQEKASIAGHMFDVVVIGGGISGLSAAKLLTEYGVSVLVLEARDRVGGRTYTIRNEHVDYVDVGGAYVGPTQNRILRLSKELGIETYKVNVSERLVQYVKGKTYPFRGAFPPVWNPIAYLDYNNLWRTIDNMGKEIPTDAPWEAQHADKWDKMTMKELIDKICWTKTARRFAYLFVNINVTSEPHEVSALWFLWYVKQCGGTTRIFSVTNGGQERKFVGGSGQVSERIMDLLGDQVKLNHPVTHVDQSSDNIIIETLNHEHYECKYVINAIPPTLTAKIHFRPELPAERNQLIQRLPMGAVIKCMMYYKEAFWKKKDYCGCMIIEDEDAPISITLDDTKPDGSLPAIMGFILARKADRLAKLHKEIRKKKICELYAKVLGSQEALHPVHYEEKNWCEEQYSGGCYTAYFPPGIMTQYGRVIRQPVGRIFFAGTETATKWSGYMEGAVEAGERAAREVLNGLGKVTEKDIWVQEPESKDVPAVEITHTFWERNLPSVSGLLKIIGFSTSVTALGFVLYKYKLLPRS
Method in brief: as §1

[3] = target: T3, recombinant human VAP-1 (Homo sapiens, UniProt Q16853); test: Activity on recombinant human VAP-1, Amplex Red HRP-coupled hydrogen peroxide assay, benzylamine substrate; conditions: recombinant human VAP-1, benzylamine substrate, 30 min preincubation at 37° C.; read-out: Inhibitory Activity (IC50, nM) human VAP-1
T3 construct: purchased R&D systems
T3 sequence (Q16853 1-763): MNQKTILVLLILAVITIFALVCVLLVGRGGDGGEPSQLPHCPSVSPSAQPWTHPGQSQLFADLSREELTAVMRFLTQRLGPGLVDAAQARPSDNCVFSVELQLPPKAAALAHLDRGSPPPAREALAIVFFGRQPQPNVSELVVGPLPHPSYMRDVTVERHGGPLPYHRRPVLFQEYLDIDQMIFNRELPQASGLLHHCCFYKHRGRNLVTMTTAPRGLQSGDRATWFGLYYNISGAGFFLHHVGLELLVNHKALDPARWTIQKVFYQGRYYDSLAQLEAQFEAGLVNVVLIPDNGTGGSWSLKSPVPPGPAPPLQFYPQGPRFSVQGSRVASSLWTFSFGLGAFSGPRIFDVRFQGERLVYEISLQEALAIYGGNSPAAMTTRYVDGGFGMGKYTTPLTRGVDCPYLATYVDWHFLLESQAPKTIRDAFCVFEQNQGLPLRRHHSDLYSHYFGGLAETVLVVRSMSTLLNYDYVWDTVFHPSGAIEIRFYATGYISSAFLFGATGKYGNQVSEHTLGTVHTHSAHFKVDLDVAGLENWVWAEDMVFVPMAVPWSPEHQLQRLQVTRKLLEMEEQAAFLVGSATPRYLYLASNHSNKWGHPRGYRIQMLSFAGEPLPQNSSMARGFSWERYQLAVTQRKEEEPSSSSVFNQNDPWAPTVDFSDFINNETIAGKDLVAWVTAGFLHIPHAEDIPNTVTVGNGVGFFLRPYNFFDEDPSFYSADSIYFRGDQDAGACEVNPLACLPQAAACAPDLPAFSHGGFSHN
Method in brief: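 Enzyme in 50 mM sodium phosphate pH 7.4 preincubated with compound 30 min at 37 °C, then 1 mM benzylamine, 200 µM Amplex Red and 1 U/mL HRP added. H2O2-derived resorufin fluorescence (ex 544/em 590 nm) followed over 1–2 h; signal-rate decrease versus DMSO control, 8-point curve, four-parameter logistic IC50.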

[4] = target: T4, recombinant human DAO (diamine oxidase) (Homo sapiens, UniProt P19801); test: Activity on recombinant human DAO, Amplex Red method, 1 mM putrescine substrate; conditions: recombinant human DAO, 1 mM putrescine; * = between 10 and 100 nM, ** = between 300 and 1000 nM; read-out: Inhibitory Activity (IC50, nM) DAO
T4 construct: purchased R&D systems
T4 sequence (P19801 20-751): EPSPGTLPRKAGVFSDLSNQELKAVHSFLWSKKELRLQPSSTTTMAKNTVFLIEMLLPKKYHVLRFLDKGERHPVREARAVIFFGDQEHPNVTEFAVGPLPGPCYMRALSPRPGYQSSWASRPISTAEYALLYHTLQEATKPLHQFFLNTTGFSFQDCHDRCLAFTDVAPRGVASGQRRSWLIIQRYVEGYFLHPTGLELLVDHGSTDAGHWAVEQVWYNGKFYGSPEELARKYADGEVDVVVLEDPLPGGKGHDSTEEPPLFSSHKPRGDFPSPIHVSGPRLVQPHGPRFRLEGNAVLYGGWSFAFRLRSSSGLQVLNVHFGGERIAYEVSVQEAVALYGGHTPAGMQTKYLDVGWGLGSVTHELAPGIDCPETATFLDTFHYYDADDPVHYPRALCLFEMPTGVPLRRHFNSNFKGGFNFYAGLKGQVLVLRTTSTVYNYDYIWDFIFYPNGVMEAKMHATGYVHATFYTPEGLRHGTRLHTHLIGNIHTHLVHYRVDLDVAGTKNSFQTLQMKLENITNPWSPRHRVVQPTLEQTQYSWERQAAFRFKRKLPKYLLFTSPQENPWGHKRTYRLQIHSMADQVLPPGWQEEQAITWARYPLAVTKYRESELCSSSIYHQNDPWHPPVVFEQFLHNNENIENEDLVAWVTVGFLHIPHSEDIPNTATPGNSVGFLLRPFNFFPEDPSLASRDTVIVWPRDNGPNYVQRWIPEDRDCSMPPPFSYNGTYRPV
Method in brief: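 Inhibition of recombinant human DAO (diamine oxidase, R&D systems) was assessed with the Amplex Red Hydrogen Peroxide Assay Kit. Hydrogen peroxide produced from 1 mM putrescine was detected through an HRP-coupled reaction that converts Amplex Red into fluorescent resorufin, read at 544 nm excitation and 590 nm emission. IC50 values came from four-parameter logistic fits in GraphPad Prism.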

Row | SMILES | IC50 [1] | IC50 [2] | IC50 [3] | IC50 [4]
1 | CC(=O)Nc1cc(-c2cc(C)c(-n3cnn(C/C(=C/F)CN)c3=O)cn2)ccn1 [Example 123, N-(5-{1-[(2E)-2-(aminomethyl)-3-fluoroprop-2-en-1-yl]-5-oxo-1,5-dihydro-4H-1,2,4-triazol-4-yl}-4-methyl-2,4′-bipyridin-2′-yl)acetamide] | 3220 nM | > 100000 nM | 1.3 nM | < 100 nM
2 | Cc1cc(-c2ccc(N3CCOCC3)nc2)ncc1-n1cnn(C/C(=C/F)CN)c1=O [Example 124, 2-[(2E)-2-(aminomethyl)-3-fluoroprop-2-en-1-yl]-4-[4-methyl-6′-(morpholin-4-yl)-2,3′-bipyridin-5-yl]-2,4-dihydro-3H-1,2,4-triazol-3-one] | > 10000 nM | > 100000 nM | 0.89 nM | < 100 nM
3 | Cc1cc(-c2ccc3sc(N)nc3c2)ncc1-n1cnn(C/C(=C/F)CN)c1=O [Example 127, 4-[6-(2-amino-1,3-benzothiazol-5-yl)-4-methylpyridin-3-yl]-2-[(2E)-2-(aminomethyl)-3-fluoroprop-2-en-1-yl]-2,4-dihydro-3H-1,2,4-triazol-3-one] | 617 nM | > 100000 nM | 1.6 nM | < 100 nM
4 | CC(=O)c1ccc(-c2cnc(-n3cnn(C/C(=C/F)CN)c3=O)c(C)c2)s1 [Example 132, 4-[5-(5-acetylthiophen-2-yl)-3-methylpyridin-2-yl]-2-[(2E)-2-(aminomethyl)-3-fluoroprop-2-en-1-yl]-2,4-dihydro-3H-1,2,4-triazol-3-one hydrochloride] | 850 nM | 62000 nM | 0.54 nM | 280 nM
5 | Cc1cc(-c2ccc(S(C)(=O)=O)cc2)cnc1-n1cnn(C/C(=C/F)CN)c1=O [Example 133, 2-[(2E)-2-(aminomethyl)-3-fluoroprop-2-en-1-yl]-4-{3-methyl-5-[4-(methylsulfonyl)phenyl]pyridin-2-yl}-2,4-dihydro-3H-1,2,4-triazol-3-one hydrochloride] | > 10000 nM | > 100000 nM | 0.84 nM | 220 nM
6 | CC(=O)Nc1ccc(-c2cnc(-n3cnn(C/C(=C/F)CN)c3=O)c(C)c2)cc1 [Example 134, N-[4-(6-{1-[(2E)-2-(aminomethyl)-3-fluoroprop-2-en-1-yl]-5-oxo-1,5-dihydro-4H-1,2,4-triazol-4-yl}-5-methylpyridin-3-yl)phenyl]acetamide hydrochloride] | > 10000 nM | > 100000 nM | 0.55 nM | 1200 nM
7 | Cc1cc(-c2cccc(-c3nnc[nH]3)c2)cnc1-n1cnn(C/C(=C/F)CN)c1=O [Example 137, 2-[(2E)-2-(aminomethyl)-3-fluoroprop-2-en-1-yl]-4-{3-methyl-5-[3-(4H-1,2,4-triazol-3-yl)phenyl]pyridin-2-yl}-2,4-dihydro-3H-1,2,4-triazol-3-one] | 3790 nM | 34000 nM | 0.5 nM | 120 nM
8 | Cc1cc(-c2ccc(-c3cnon3)cc2)cnc1-n1cnn(C/C(=C/F)CN)c1=O [Example 138, 2-[(2E)-2-(aminomethyl)-3-fluoroprop-2-en-1-yl]-4-{3-methyl-5-[4-(1,2,5-oxadiazol-3-yl)phenyl]pyridin-2-yl}-2,4-dihydro-3H-1,2,4-triazol-3-one hydrochloride] | 1100 nM | 84000 nM | 0.7 nM | 240 nM

Compounds with a lower IC50 [1], results first:

Row | IC50 [1] | IC50 [2] | IC50 [3] | IC50 [4] | SMILES
9 | 456 nM | > 100000 nM | 0.7 nM | < 100 nM | Cc1cc(-c2ccc(-c3nc[nH]n3)cc2)ncc1-n1cnn(C/C(=C/F)CN)c1=O [Example 121, 2-[(2E)-2-(aminomethyl)-3-fluoroprop-2-en-1-yl]-4-{4-methyl-6-[4-(1H-1,2,4-triazol-3-yl)phenyl]pyridin-3-yl}-2,4-dihydro-3H-1,2,4-triazol-3-one]
10 | 133 nM | > 100000 nM | 0.87 nM | < 100 nM | Cc1cc(-c2ccc3cn[nH]c3c2)ncc1-n1cnn(C/C(=C/F)CN)c1=O [Example 126, 2-[(2E)-2-(aminomethyl)-3-fluoroprop-2-en-1-yl]-4-[6-(1H-indazol-6-yl)-4-methylpyridin-3-yl]-2,4-dihydro-3H-1,2,4-triazol-3-one]
11 | 10 nM | > 100000 nM | 0.45 nM | < 1 nM | CS(=O)(=O)c1ccc(-c2ccc(-n3cnn(C/C(=C\F)CN)c3=O)nc2)cc1 [Example 129, 2-[(2Z)-2-(aminomethyl)-3-fluoroprop-2-en-1-yl]-4-{5-[4-(methylsulfonyl)phenyl]pyridin-2-yl}-2,4-dihydro-3H-1,2,4-triazol-3-one hydrochloride]
12 | 20 nM | 26000 nM | 0.39 nM | 1 to 10 nM | CC(=O)Nc1ccc(-c2ccc(-n3cnn(C/C(=C\F)CN)c3=O)nc2)cc1 [Example 130, N-[4-(6-{1-[(2Z)-2-(aminomethyl)-3-fluoroprop-2-en-1-yl]-5-oxo-1,5-dihydro-4H-1,2,4-triazol-4-yl}pyridin-3-yl)phenyl]acetamide hydrochloride]
